Measured values from patent US9408899B2, “Vaccines against Toxoplasma gondii” (priority 2010, dated 2016).
Where two headings read alike, the source gives them in different places. No end group written: not given here.

Columns and labels:
HLA-A*0201 = HLA-A*0201 (Homo sapiens, UniProt P04439, D140Y/D185E/D98H/E176V/E277Q/G131W/G231S/I119V/I121R/I166T/I218V/L300P/L318F/N151K/N90K/P208A/P217A/Q86G/Q94H/R138H/R169H/T345S); test: MHC-peptide binding assay (inhibition of binding of radiolabeled standard peptide); details: for IC50: MHC binding assay, measured IC50 approximates Kd, no unit in table, text b40 speaks of nM, read-out: Affinity (c) HLA-A*0201
Description: (§2) Briefly, 1-10 nM of radiolabeled peptides were co-incubated with 1 M-1 nM purified MHC and 1-3 human β2-microglobulin. After 2 days, binding of radiolabeled peptide to corresponding MHC Class I molecule was determined by capturing MHC-peptide complexes on Greiner GREINER® Lumitrac 600 microplates coated with W6/32 antibody and measuring bound counts per minutes using a Topcount microscintillation counter. […] Under conditions used, where [radiolabeled probe]<[MHC] and IC50≧[MHC], measured IC50 values are reasonable approximations of true Kd values.

[1] = system: Splenic T cells from HLA-A*0201 mice; test: IFN-γ ELISpot with splenocytes of immunized HLA-A*0201 transgenic mice; assay type: in vivo; details: for IFN-γ production in vitro by T cells from immunized mice: HLA-A*0201 mice immunized with pooled peptides alone, stimulated with the individual peptide; for IFN-γ production from T cells of immunized mice: HLA-A*0201 mice immunized with pooled peptides plus PADRE
Description: Eleven to fourteen days post immuniztion, spleen cells were isolated and exposed to each individual peptide.
5×10^5 splenocytes were plated per well. All antibodies and reagents used for ELISpot assays were obtained from Mabtech (Cincinnati, Ohio). Cells were plated in at least 3 replicate wells for each condition. Results were expressed as number of spot forming cells (SFCs) per 10^6 PBMCs or per 10^6 murine splenocytes.
Mice were boosted once at a 2-week interval.
Three to five mice from each group were euthanized 7 to 14 days after the last immunization. Spleens were harvested, pressed through a 70 μm screen to form a single-cell suspension, and depleted of erythrocytes with ASK lysis buffer (160 mM NH4Cl, 10 mM KHCO3, 100 μM EDTA).
Each ELISpot experiment was replicated a minimum of twice. P values of ≦0.05 were considered significant.

[2] = system: splenocytes from HLA-B*0702 transgenic mice; details: HF10 administered as lipopeptide with PADRE or with MLA, earlier work; cited from earlier work
HLA-A*1101 = HLA-A*1101 (Homo sapiens, UniProt P04439, A114D/D185E/E176A/F33Y/L180Q/S129P/T187R); test: MHC-peptide binding assay; details: unit inferred
Description: Under conditions used, where [radiolabeled probe]<[MHC] and IC50≧[MHC], measured IC50 values are reasonable approximations of true Kd values.

HLA-A*0301 = HLA-A*0301 (Homo sapiens, UniProt P04439); test: MHC-peptide binding assay; details: MHC binding affinity; IC50 approximates Kd; unit inferred
Description: (§1) Assays were as described in Sidney, J., et al. Immunome Res 4, 2 (2008).

HLA-A*3001 = HLA-A*3001 (Homo sapiens, UniProt P04439, D140H/D185E/E176W/F33S/G80R/H175R/K168Q/R138E/R41S); test: MHC-peptide binding assay; details: MHC binding affinity; IC50 approximates Kd; unit inferred
Description: as §1

HLA-A*3101 = HLA-A*3101 (Homo sapiens, UniProt P04439, A270S/D185E/E176V/E277Q/F33T/G231S/G80R/H175R/I121M/I218V/I322F/K168Q/L300P/L318F/M331R/P217A/Q94H/R138Q/T323A/T345S/T97I/V358M); test: MHC-peptide binding assay; details: MHC binding affinity; IC50 approximates Kd; unit inferred
Description: as §1

HLA-A*3301 = HLA-A*3301 (Homo sapiens, UniProt P04439, A270S/D185E/E176V/E277Q/E87N/F33T/G231S/H175R/I121M/I218V/I322F/K168Q/K210R/L300P/L318F/M331R/P217A/Q86R/Q94H/R138Q/T323A/T345S/T97I/V358M/Y195H); test: MHC-peptide binding assay; details: MHC binding affinity; IC50 approximates Kd; unit inferred
Description: as §1

HLA-A*6801 = HLA-A*6801 (Homo sapiens, UniProt P04439, A269V/D185E/E176V/E277Q/E87N/F33Y/G231S/I121M/I166T/I218V/L180W/L300P/L318F/N151K/P208A/P217A/Q86R/R169H/T345S); test: MHC-peptide binding assay; details: MHC binding affinity; IC50 approximates Kd; unit inferred
Description: as §1

HLA-A03 supertype = test: MHC-peptide binding assay, number of supertype alleles bound; design: species or system human; details: of six HLA-A03 supertype alleles tested
Description: as §1

[3] = system: splenocytes from HLA-A*1101 transgenic mice; test: IFN-γ ELISpot with splenocytes of immunized HLA-A*1101 transgenic mice; assay type: in vivo; details: for IFN-γ production by splenocytes of lipopeptide-immunized mice: HLA-A*1101 mice immunized twice at three week intervals with lipopeptide in PBS, stimulated with peptides
Description: As controls, mice were injected with PBS. Mice were vaccinated twice at 3-week intervals.
Murine splenocytes: Mice were euthanized 7 to 14 days after immunization. Spleens were harvested, pressed through a 70 μm screen to form a single-cell suspension, and depleted of erythrocytes with AKC lysis buffer (160 mM NH4Cl, 10 mM KHCO3, 100 μM EDTA).
5×10^5 splenocytes were plated per well.
Both murine and human cells were plated in at least 3 replicate wells for each condition. Results were expressed as number of spot forming cells (SFCs) per 10^6 PBMCs or per 10^6 murine splenocytes.
All mouse experiments were repeated at least twice, with 4-5 mice for each group.

HLA-A*0203 = HLA-A*0203 (Homo sapiens, UniProt P04439, A173T/D140Y/D185E/D98H/E277Q/G131W/G231S/I119V/I121R/I166T/I218V/L180W/L300P/L318F/N151K/N90K/P208A/P217A/Q86G/Q94H/R138H/R169H/T345S); test: MHC-peptide binding assay
Description: as §2

HLA-A*0202 = HLA-A*0202 (Homo sapiens, UniProt P04439, D140Y/D185E/D98H/E176V/E277Q/G131W/G231S/I119L/I121R/I166T/I218V/L180W/L300P/L318F/N151K/N90K/P208A/P217A/Q67R/Q86G/Q94H/R138H/R169H/T345S); test: biochemical
Description: as §2

[4] = Table 3, MHC binding assay, read-out: Affinity^b HLA-A*1101

FMIAFISCFA [SAG2D180-189]
IC50 (HLA-A*0201): 32 nM | IFN-γ production in vitro by T cells from immunized mice [1]: significant IFN-γ production | IFN-γ production from T cells of immunized mice [1]: significant IFN-γ production

HPGSVNEFDF (listed as Toxoplasma gondii) [HF10]
immunogenic in HLA-B07 transgenic mice [2]: not immunogenic

AVVSLLRLLK
IC50 (HLA-A*1101; [4]): 34 nM | IC50 (HLA-A*0301): 17 nM | IC50 (HLA-A*3001): 8.1 nM | IC50 (HLA-A*3101): 1300 nM | IC50 (HLA-A*3301): 1100 nM | IC50 (HLA-A*6801): 94 nM | SUPERTYPE ALLELES BOUND (HLA-A03 supertype): 4

FLTDYIPGA [SAG3136-144]
IC50 (HLA-A*0201): 0.7 nM

FVIFACNFV [SAG2X44-52]
IC50 (HLA-A*0201): 34 nM | IFN-γ production from T cells of immunized mice [1]: significant IFN-γ production

FLLGLLVHV [SAG3375-383]
IC50 (HLA-A*0201): 6.4 nM | IFN-γ production from T cells of immunized mice [1]: significant IFN-γ production

SSAYVFSVK
IC50 (HLA-A*1101; [4]): 10 nM | IC50 (HLA-A*0301): 12 nM | IC50 (HLA-A*3001): 1830 nM | IC50 (HLA-A*3101): 97 nM | IC50 (HLA-A*3301): 181 nM | IC50 (HLA-A*6801): 2.1 nM | SUPERTYPE ALLELES BOUND (HLA-A03 supertype): 5

LpKS9: lipopeptide: palmitic acid-bearing lysine, PADRE, then KSFKDILPK (SAG1224-232)
IFN-γ production by splenocytes of lipopeptide-immunized mice [3]: higher IFN-γ production than LpRS9

LpAM9: lipopeptide: palmitic acid-bearing lysine, PADRE, then AMLTAFFLR (GRA6164-172)
IFN-γ production by splenocytes of lipopeptide-immunized mice [3]: higher IFN-γ production than LpRS9

GLAAAVVAV [SPA82-90]
IC50 (HLA-A*0201): 9.6 nM

ITMGSLFFV [SPA12-20]
IC50 (HLA-A*0201): 0.16 nM

FLSLSLLVI [SAG2C38-46]
Kd (HLA-A*0201): > 50 nM | IC50 (HLA-A*0201): 736 nM | Kd (HLA-A*0203): 50 to 500 nM | IFN-γ production in vitro by T cells from immunized mice [1]: significant IFN-γ production | IFN-γ production from T cells of immunized mice [1]: significant IFN-γ production | Kd (HLA-A*0202): 50 to 500 nM

STFWPCLLR
IC50 (HLA-A*1101; MHC binding affinity, Table 2b, IC50 approximates Kd, read-out: HLA-A*1101): 10 nM | IC50 (HLA-A*0301): 22 nM | IC50 (HLA-A*3001): 1270 nM | IC50 (HLA-A*3101): 1.2 nM | IC50 (HLA-A*3301): 3.4 nM | IC50 (HLA-A*6801): 0.97 nM | SUPERTYPE ALLELES BOUND (HLA-A03 supertype): 5

CC(C)C[C@H](NC(=O)[C@H](CC(C)C)NC(=O)[C@H](CC(=O)O)NC(=O)[C@H](CCCCN)NC(=O)[C@H](Cc1ccccc1)NC(=O)[C@H](CO)NC(=O)[C@@H](N)CCCNC(=N)N)C(=O)N[C@@H](CCCCN)C(=O)N[C@@H](CCCCN)C(=O)O
IFN-γ production on stimulation of spleen cells with the peptide ([3]; HLA-A*1101 mice immunized with a mixture of peptides and adjuvants): not present

FMIVSISLV [SAG2X351-359]
IC50 (HLA-A*0201): 16 nM | IFN-γ production from T cells of immunized mice [1]: significant IFN-γ production
